Results as given in patent US7432245B2, “Pharmaceutical formulation comprising a peptide angiogenesis inhibitor” (Abbott Laboratories Inc., priority 2002, dated 2008).
Counter-ions that a name gives are not always drawn. Where a SMILES comes first, the peptide text is derived from it. [ ]: non-standard residue; d: D form. Nva = CCC[C@H](N)C(=O)O; Sar = CNCC(=O)O

Assay: In vitro release from PLG gels into buffer at 37° C.
Type: physicochemical
Details: solution of 5% in 2:1 NMP/TA without PLG, 5 mM PBS buffer (pH 7.4), FIG. 1
Procedure: The samples of gel formulations of the acetate salt of formula (Ia) in PLG and NMP/TA were immersed in 5 mM PBS buffer (pH 7.4) and incubated at 37° C. At a predetermined time, 1 mL of the dissolution medium was withdrawn from the dissolution container, filtered, and assayed for the concentration of the acetate salt of formula (Ia) by HPLC. Fresh PBS buffer (1 mL) was added to replace the withdrawn medium.
The in vitro drug release of the acetate salt of formula (Ib) from the PLG gel formulations (IV) and (V) (from Example 6) was determined by the method described in Example 4.
The in vitro drug release profiles of PLG (24 KD) gel formulations were obtained by the methods described in Example 4.
Formulations of valproate (formulation VI), octanoate (formulation VII), and pivalate (formulation VIII) salts of the compound of formula (Ib) were prepared by substituting the appropriate salts (prepared as described in Example 1b) for the acetate salt in Example 6B. […] In addition, a formulation (formulation IX) that contained 6.0% pivalate salt of formula (Ib), 32.9% PLG (13 KD, 50:50 polymer ratio), 40.4% NMP and 20.7% TA was also prepared. The in vitro drug release profiles of formulations VI, VII, VIII, and IX were obtained by the methods described in Example 4 substituting 50 mM phosphate buffer (pH 7.4) for 5 mM PBS buffer. […]

in vitro release profile: no sustained release
Structure (SMILES): CCC[C@H](NC(=O)[C@@H](NC(=O)[C@H](NC(=O)[C@@H](NC(=O)CNC(=O)CN(C)C(C)=O)C(C)C)[C@H](C)CC)[C@@H](C)O)C(=O)N[C@H](C(=O)N[C@@H](CCCNC(=N)N)C(=O)N1CCC[C@H]1C(=O)NCC)[C@@H](C)CC [acetate salt of formula (Ia), N-Ac-Sar-Gly-Val-DIle-Thr-Nva-Ile-Arg-ProNHCH2CH3] (Ac-[Sar]GV[dI]T[Nva]IRP-NHEt)
